From patent US9206124B2, “Treatment of drug-resistant cancer with 2-aryl-2-(3-indolyl) acetohydroxamates” (New Mexico Technical Research Foundation, priority 2013, dated 2015)
Entries after “also recorded” stand apart in the source; their conditions may differ.

Legend:
[1] = system: HeLa cervical and MCF-7 breast adenocarcinomas; experiment: In vitro growth inhibition (MTT); format: cell-based, human; conditions: HeLa and MCF-7
From the text: (§1) This finding led to an exploration of the SAR analyses by synthesizing the first generation compounds 3 containing diverse substituents at different positions in the 2-aryl-2-(3-indolyl)acetohydroxamate skeleton and testing this series for in vitro growth inhibition using the MTT colorimetric assay against two cell lines, human HeLa cervical and MCF-7 breast adenocarcinomas (Table 1). It emerged from these experiments that the substitution on the benzene ring of the indole moiety (R^2≠H) was not tolerated (e.g., 3abfa and 3acfa), whereas the nitrogen could be derivatized (R^1≠H) with only a small activity drop (e.g., 3bafa vs 3aafa).
(§2) Antiproliferative properties of the synthesized compounds were evaluated by the MTT assay. All compounds were dissolved in DMSO at a concentration of either 100 mM or 50 mM prior to cell treatment. The cells were trypsinized and seeded at 4×10^3 cells per well into 96-well plates. The cells were grown for 24 h, treated with compounds at concentrations ranging from 0.001 to 100 μM and incubated for 48 h in 200 μL media. 20 μL of MTT reagent in serum free medium (5 mg/mL) was added to each well and incubated further for 2 h. Media was removed and the resulting formazan crystals were re-solubilized in 200 μL of DMSO. A490 was measured using a Molecular Devices Thermomax plate reader. The experiments were performed in quadruplicate and repeated at least twice for each compound per cell line. Cells treated with 0.1% DMSO were used as a negative control; 1 μM phenyl arsine oxide (PAO) was used as a positive control.

[2] = system: MES-SA uterine sarcoma cells; experiment: MTT antiproliferative assay, MES-SA; format: cell-based; conditions: Homo sapiens, 48 h treatment, ± SD, read-out: GI50 in vitro, MES-SA
Procedure: Compared with the intrinsic drug resistance, as described above for such cancers as glioblastoma and melanoma, a large variety of tumors can also develop resistance to anticancer drugs resulting in MDR as explained previously. To assess whether the hydroxamates can overcome this resistance mechanism, selected hydroxamates were tested against MDR cells (Table 4). The MDR uterine sarcoma cell line MES-SA/Dx5 was utilized for this experiment. This cell line was established from the parent uterine sarcoma MES-SA, grown in the presence of increasing concentrations of doxorubicin and known to be resistant to a number of P-gp substrates. […] In contrast, there was only a small variation in the sensitivities of the two cell lines towards the hydroxamates indicating their potential to overcome clinical multi-drug resistance.
(§3) Human cancer cell lines were obtained from the American Type Culture Collection (ATCC, Manassas, Va., USA), the European Collection of Cell Culture (ECACC, Salisbury, UK) and the Deutsche Sammlung von Mikroorganismen and Zellkulturen (DSMZ, Braunschweig, Germany). Human cervical adenocarcinoma HeLa cells were cultured in DMEM supplemented with 10% fetal bovine serum (FBS). Human mammary carcinoma MCF-7 cells were cultured in RPMI supplemented with 10% FBS. The U87 cells (ATCC HTB-14) were cultured in DMEM culture medium, while the A549 cells (DSMZ ACC107) were cultured in RPMI culture medium supplemented with 10% heat-inactivated FBS. The glioblastoma multiforme Hs683 (ATCC HTB-138) and the T98G (ATCC CRL-1690) cell lines were cultivated in DMEM supplemented with 10% FBS. The Human uterine sarcoma MES-SA and MES-SA/Dx5 cells were cultured in RPMI-1640 medium supplemented with 10% FBS with MES SA/Dx5 maintained in the presence of 500 nM Doxorubicin (Sigma). SKMEL-28 cells (ATCC HTB72) and U373 glioblastoma cells (ECACC 08061901) were cultured in RPMI culture medium supplemented with 10% heat-inactivated FBS. Cell culture media were supplemented with 4 mM glutamine (Lonza code BE17-605E), 100 μg/mL gentamicin (Lonza code 17-5182), and penicillin-streptomycin (200 units/ml and 200 μg/ml) (Lonza code 17-602E). Neurosphere culture GBM 031810 was established using known methods and maintained in Neurobasal medium (Invitrogen Carlsbad, Calif.) with B27 supplement (20 ul/ml; Invitrogen), Glutamax (10 ul/ml; Invitrogen), fibroblast growth factor-2 (20 ng/ml; Peprotech, Rocky Hill, N.J., USA), epidermal growth factor (20 ng/ml; Peprotech), heparin (32 IE/ml; Sigma Aldrich, St. Louis, Mo.), and penicillin-streptomycin (1×, Invitrogen). Growth factors and heparin were renewed twice weekly. All cell lines were cultured in T25 flasks, maintained and grown at 37° C., 95% humidity, 5% CO2.
as §2

U87 glioblastoma cells = experiment: MTT antiproliferative assay, U87; format: cell-based, human; conditions: for GI50: Homo sapiens, 48 h treatment, MTT, ± SD, read-out: GI50 in vitro, U87
Procedure: (§4) As part of the ongoing efforts aimed at identification of compounds active against cancer cells displaying resistance to proapoptotic agents, the selected 2-aryl-2-(3-indolyl)-acetohydroxamates were evaluated for in vitro growth inhibition against a panel of additional cancer cell lines including those resistant to various proapoptotic stimuli, such as human T98G and U87 glioblastoma and human A549 non-small-cell-lung cancer (NSCLC), as well as an apoptosis-sensitive tumor model, such as human Hs683 anaplastic oligodendroglioma, used as a reference. The data reveal that for the most part these compounds retain the single-digit antiproliferatve GI50 values in this challenging cancer cell panel.
as §3, §2

T98G glioblastoma cells = experiment: MTT antiproliferative assay, T98G; format: cell-based; conditions: Homo sapiens, 48 h treatment, ± SD, read-out: GI50 in vitro, T98G
Procedure: as §4, §3, §2

[3] = system: A549 non-small-cell-lung cancer cells; experiment: MTT antiproliferative assay, A549; format: cell-based, human; conditions: for GI50: Homo sapiens, A549, 48 h treatment, MTT, ± SD, read-out: GI50 in vitro, A549
Procedure: as §4, §3, §2

[4] = system: MCF-7 breast adenocarcinoma cells; experiment: MTT antiproliferative assay, MCF-7; format: cell-based; conditions: Homo sapiens, MCF7, Table 2, 48 h treatment, ± SD, read-out: cell viability GI50, MCF7
From the text: as §1, §3, §2

[5] = system: GBM 031810 neurosphere cells; experiment: Antiproliferative effect on patient-derived GBM neurosphere culture; format: cell-based; conditions: Homo sapiens, average IC50 ± SD from three determinations, read-out: GI50 in vitro, GBM 031810 (average IC50)
From the text: Given the ability of the hydroxamates to overcome drug resistance a few select compounds were further evaluated against glioma cells grown in neurosphere conditions, which are known to promote the growth of stem-like cells from human glioma tissue. Indeed, the neurospheres show the ability of self-renewal by regrowing in culture from individual cells, and can differentiate into multiple neural lineages and recapitulate human gliomas on both histological and genetic levels more faithfully than serum cultured glioma cell lines when injected into the brains of mice. Because, neurosphere cells are generally resistant to radiation and chemotherapy, the micromolar to submicromolar activity of the hydroxamates against the glioma neurosphere cell cultures is noteworthy (Table 4). […] It is worthy of note, that the unmethylated MGMT promoter leading to such temozolomide resistance is found in about half of all GBM patients, who respond poorly to temozolomide chemotherapy. To date, no alternative treatment exists for this group of patients.
as §3, with “Growth factors and heparin were renewed twice weekly. All cell lines were cultured in T25 flasks, maintained and grown at 37° C., 95% humidity, 5% CO2.” left out

[6] = system: MES-SA/Dx5 MDR uterine sarcoma cells; experiment: MTT antiproliferative assay, MDR MES-SA/Dx5; format: cell-based, human; conditions: Homo sapiens, MES-SA/Dx5; 48 h treatment, MTT, ± SD; MDR line; read-out: GI50 in vitro, MES-SA/Dx5
Procedure: Compared with the intrinsic drug resistance, as described above for such cancers as glioblastoma and melanoma, a large variety of tumors can also develop resistance to anticancer drugs resulting in MDR as explained previously. To assess whether the hydroxamates can overcome this resistance mechanism, selected hydroxamates were tested against MDR cells (Table 4). The MDR uterine sarcoma cell line MES-SA/Dx5 was utilized for this experiment. This cell line was established from the parent uterine sarcoma MES-SA, grown in the presence of increasing concentrations of doxorubicin and known to be resistant to a number of P-gp substrates.
as §3, §2
Selection of the MES-SA/Dx5 cell line was done according to W. G. Harker and B. I. Sikic, Cancer Res. 1985, p. 45, 4091. The cells were split and allowed to adhere overnight. […] The cells were maintained at this DOX concentration until their growth rate reached that of the untreated cells.

[7] = system: Hs683 anaplastic oligodendroglioma cells; experiment: MTT antiproliferative assay, Hs683; format: cell-based; conditions: Homo sapiens, Hs 683, 48 h treatment, ± SD, apoptosis-sensitive reference, read-out: GI50 in vitro, Hs683
Procedure: as §4, §3, §2

[8] = system: HeLa cervical adenocarcinoma cells; experiment: MTT antiproliferative assay, HeLa; format: cell-based; conditions: Homo sapiens, Table 2, 48 h treatment, ± SD, read-out: cell viability GI50, HeLa
From the text: as §1, §3, §2

[9] = FIG. 3, increasing concentration

| antiproliferative potency (GI50) [1] | GI50 [2] | GI50 (U87 glioblastoma cells) | GI50 (T98G glioblastoma cells) | GI50 [3] | GI50 [4] | GI50 [6] | GI50 [7] | GI50 [8] | SMILES | IC50 [5] | activity against cell populations resistant to proapoptotic agents, U87 (U87 glioblastoma cells; [9]) | activity against cell populations resistant to proapoptotic agents, A549 [3, 9] |
| --- | --- | --- | --- | --- | --- | --- | --- | --- | --- | --- | --- | --- |
| single-digit micromolar | 1.8 ± 0.4 µM | 6.7 ± 1.5 µM | 7.5 ± 0.8 µM | 2.9 ± 0.6 µM | 2.5 ± 0.1 µM | 2.2 ± 0.8 µM | 4.7 ± 1 µM | 2.7 ± 0.1 µM | Cc1ccc(C(C(=O)NO)c2c(-c3ccc4ccccc4c3)[nH]c3ccccc23)cc1C (centres unmarked) [Compound 3aafk] |  |  |  |
| single-digit micromolar | 5.9 ± 1.7 µM | 6.7 ± 0.3 µM | 12.3 ± 0.8 µM | 5.7 ± 0.5 µM | 7.8 ± 0.6 µM | 2.7 ± 0.3 µM | 10.8 ± 0.5 µM | 5.6 ± 0.3 µM | CCCCn1c(-c2ccc3ccccc3c2)c(C(C(=O)NO)c2ccccc2)c2ccccc21 (centres unmarked) [Compound 3cafa] |  |  |  |
| single-digit micromolar | 7.1 ± 0.1 µM | 9.1 ± 0.3 µM | 10.6 ± 0.4 µM | 5.8 ± 0.8 µM | 5.5 ± 0.2 µM | 8.5 ± 0.9 µM | 11.2 ± 0.9 µM | 5.4 ± 0.3 µM | O=C(NO)C(c1ccccc1)c1c(-c2ccc3ccccc3c2)n(Cc2ccccc2)c2ccccc12 (centres unmarked) [Compound 3eafa] |  |  |  |
|  |  |  |  |  |  |  |  |  | Cn1nnc2c(C(N)=O)ncn2c1=O [Temozolomide, reference compound] | > 1000 µM |  |  |

| SMILES | antiproliferative potency (GI50) [1] | GI50 [2] | GI50 (U87 glioblastoma cells) | GI50 (T98G glioblastoma cells) | GI50 [3] | GI50 [4] | GI50 [6] | GI50 [7] | GI50 [8] | IC50 [5] | activity against cell populations resistant to proapoptotic agents, U87 (U87 glioblastoma cells; [9]) | activity against cell populations resistant to proapoptotic agents, A549 [3, 9] |
| --- | --- | --- | --- | --- | --- | --- | --- | --- | --- | --- | --- | --- |
| CC(C)c1ccc(C(C(=O)NO)c2c(-c3ccc4ccccc4c3)[nH]c3ccccc23)cc1 (centres unmarked) [Compound 3aafe] | single-digit micromolar; also recorded: submicromolar | 1.7 ± 0.4 µM | 5 ± 0.5 µM | 8.8 ± 0.5 µM | 3.3 ± 0.6 µM | 1.4 ± 0.1 µM | 4.9 ± 1.9 µM | 6.1 ± 1 µM | 0.68 ± 0.04 µM | 3.4 ± 0.7 µM |  |  |
| CN(C)c1ccc(C(C(=O)NO)c2c(-c3ccc4ccccc4c3)[nH]c3ccccc23)cc1 (centres unmarked) [Compound 3aafp] | single-digit micromolar; also recorded: submicromolar | 0.8 ± 0.1 µM | 21.3 ± 1.6 µM | 1.9 ± 0.2 µM | 1.5 ± 0.3 µM | 1.1 µM | 1.6 ± 0.6 µM | 5.1 ± 0.5 µM | 0.6 ± 0.02 µM | 5.6 ± 0.8 µM | potent growth inhibitory properties against most of the cells | potent growth inhibitory properties against most of the cells |
